Reference: patent US20230102247A1, “METHODS AND COMPOSITIONS RELATING TO IONIC LIQUID ADJUVANTS” (PRESIDENT AND FELLOWS OF HARVARD COLLEGE, priority 2020, published 2023)
Structures can show the parent of a compound that is named as a salt. Where two headings read alike, the source gives them in different places.

Columns and labels:
[1] = cited from earlier work
OVA [2] = molecular target: T1, OVA (Gallus gallus, UniProt P01012)
Description: OVA containing solutions (0.5 mg mL-1) and complete medium (DMEM+10% FBS) were mixed to a total volume of 500 μL and incubated at 37° C. on a tube revolver. At regular time points, the suspensions were centrifuged at 12 000×g for 15 min and the supernatant was collected for analysis. The pellet was further resuspended in 400 μL fresh release media and incubated until the next time point.

[3] = test system: infiltrating immune cells at the injection site; conditions: subcutaneous, 24 h
Description: (§1) Female Balb/C mice (6-8-week-old) were purchased from Charles River Laboratories. All experiments were performed according to the approved protocols by the Institutional Animal Care and Use Committee (IACUC) of the Faculty of Arts and Sciences (FAS), Harvard University, Cambridge.
Balb/c mice were subcutaneously injected in the back with 50 μL of saline, CoLa or alum (n=4 for all groups). […] Undigested tissue was removed by 70 μm mesh filtration. The suspension was centrifuged at 400×g for 10 min. The supernatant was removed via pipetting and 2 mL ACK lysing buffer (Thermo Fisher) was added to the pellet. After 5 min the suspensions were centrifuged again and resuspended with 2 mL FCS blocking buffer.

immune response to OVA = test system: immune response to OVA
Description: as §1
Balb/c mice were subcutaneously injected in the back with 50 μL of OVA-saline, OVA-CoLa or alum (n=8 for all groups). A total of three injections were given on day 0, day 7 and day 14. On day 19, the mice were euthanized, blood and spleen were collected for further analysis.
Blood was centrifuged at 5000 rpm for 10 minutes at 4° C. to separate the serum from the cells. Anti-OVA IgG titer was measured as previously described^13.

OVA [4] = molecular target: T1, OVA; conditions: 10% w/v CoLa in saline, compared to alum
Description: For the CoLa adjuvant formulation, 10% w/v CoLa was added unless specified. Adsorbed OVA was quantified using a plate reader (Spectramax i3™)

OVA [5] = molecular target: T1, OVA; remark: listed apart in the source
Description: An SDS-PAGE assay was carried out to assess OVA aggregation from the OVA-CoLa or alum samples. 1 mg mL-1 OVA in 10% v/v CoLa or 2% alum were incubated for 1 h at room temperature (25° C.). OVA in saline was used as a negative control. […] Before electrophoresis, all samples were centrifuged at 5000×g for 5 min to discard any undissolved residue and the clear supernatants were adjusted to equivalent protein concentration. […] The protein bands were stained with Bio-Safe Coomassie stain (BioRad) for observation according to the manufacturer's protocol. Circular dichroism spectrophotometry (Jasco J-1500, Easton) was performed in the far-UV region (190-250 nm) to collect spectra. The three OVA (0.5 mg mL-1) containing formulations were centrifuged for 10 min at 10,000×g. The supernatant was removed via pipetting, while the soft OVA pellet at the bottom of the tube was not disturbed. The pellet was washed with 1 mL PBS and centrifuged again to remove the supernatant. The washing/centrifugation steps were repeated until no OVA pellet was formed during centrifugation. Rectangular quartz cells with a 1 mm path length (1-Q-1) were loaded with 400 μL of a sample. As a control spectrum, OVA in PBS was used. Each spectrum was the average of three scans.

T1 sequence (P01012 whole entry): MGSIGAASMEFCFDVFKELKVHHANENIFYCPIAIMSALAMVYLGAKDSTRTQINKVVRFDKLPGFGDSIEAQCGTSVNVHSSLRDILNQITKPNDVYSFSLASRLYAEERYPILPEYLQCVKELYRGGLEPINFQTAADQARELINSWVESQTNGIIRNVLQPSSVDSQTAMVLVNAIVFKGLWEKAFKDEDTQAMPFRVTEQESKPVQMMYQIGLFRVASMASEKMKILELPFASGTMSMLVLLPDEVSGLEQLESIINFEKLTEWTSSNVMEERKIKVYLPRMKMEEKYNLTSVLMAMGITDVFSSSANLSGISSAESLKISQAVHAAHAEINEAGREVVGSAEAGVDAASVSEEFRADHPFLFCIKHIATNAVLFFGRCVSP

**Q.** With `O=P(O)(O)Oc1ccccc1` [Phenylphosphoric acid] as the molecule, how does the LogP ([1]; exemplary anions) read?
**A.** Its LogP is 1.05.

**Q.** With `O=S(=O)(O)c1ccc(O)cc1` [4-hydroxybenzenesulfonic acid] as the molecule, how does the LogP ([1]; exemplary anions) read?
**A.** Its LogP is 0.2.

**Q.** With `O=C(O)/C=C\C(=O)O` [Maleic acid] as the molecule, how does the LogP ([1]; exemplary anions) read?
**A.** The LogP was −0.48.

**Q.** For `CCC(=O)O` [Propanoic acid], which LogP ([1]; exemplary anions) is on record?
**A.** The LogP was 0.33.

**Q.** With `O=C(O)c1cccc(-c2ccccc2)c1` [Biphenyl-3-carboxylic acid] as the molecule, how does the LogP ([1]; exemplary anions) read?
**A.** Its LogP is 3.5.

**Q.** Which “time over which adsorbed OVA was released” value (OVA [2]; 10% w/v CoLa in saline, DMEM+10% FBS, 37° C.) does the source give for `CC(O)C(=O)O.CC(O)C(=O)[O-].C[N+](C)(C)CCO` [CoLa, Choline lactate (1:2)] here?
**A.** Its value is 24 h.

**Q.** And the “release of adsorbed OVA” value (OVA [2]; compared to alum)?
**A.** The value was “faster release”.

**Q.** And the “infiltrating CD8 cells” value [3]?
**A.** The value was “no such effect”.

**Q.** And the “CD86 (activation marker) on infiltrating dendritic cells” value ([3]; compared to the controls)?
**A.** Its value is “significant increase”.

**Q.** And the “increase in infiltration of CD4 cells” value ([3]; compared to the controls)?
**A.** The value was roughly 25%.

**Q.** And the “higher infiltration of dendritic cells” value ([3]; compared to untreated and alum-treated mice)?
**A.** The value was 20%.

**Q.** And the “Th2 response, as assessed by anti-OVA IgG” value (immune response to OVA; compared to alum)?
**A.** Its value is “non-significant Th2 response”.

**Q.** And the Th1 response (immune response to OVA; injections day 0, 7, 14, analysis day 19)?
**A.** Its Th1 response is “strong Th1 response”.

**Q.** And the “activated dendritic cells (CD80)” value (immune response to OVA; spleen, CoLa versus alum)?
**A.** Its value is “significantly higher”.

**Q.** And the “increase in IFN-γ+CD4 cells” value (immune response to OVA; spleen, compared to alum)?
**A.** The value was roughly 3 fold.

**Q.** What about the “increase in the number of CD4 cells” value (immune response to OVA; spleen, compared to both the other groups) of the same molecule?
**A.** The value was 50%.

**Q.** And the “increase in the CD8 cells” value (immune response to OVA; spleen, compared to the controls)?
**A.** The value was 5 fold.

**Q.** What about the “increase in natural killer (NK) cells” value (immune response to OVA; spleen, compared to the saline group) of the same molecule?
**A.** The value was roughly 1.8 fold.

**Q.** What about the “OVA adsorption on adjuvant” value (OVA [4]) of the same molecule?
**A.** Its value is “lower adsorption”.

**Q.** What about the “secondary structure of OVA (CD analysis)” value (OVA [5]) of the same molecule?
**A.** The value was “preserved”.

**Q.** And the “molecular integrity of adsorbed OVA (SDS-PAGE)” value (OVA [5]; similar to alum and saline)?
**A.** The value was “maintained the molecular integrity”.

**Q.** With `O=C(O)[C@H](O)[C@@H](O)[C@H](O)[C@H](O)CO` [Gluconic acid] as the molecule, how does the LogP ([1]; exemplary anions) read?
**A.** Its LogP is −3.4.

**Q.** For `O=C(O)CO` [Glycolic acid], which LogP ([1]; exemplary anions) is on record?
**A.** Its LogP is −1.11.

**Q.** With `CC(C)C(=O)O` [Isoburtyric acid] as the molecule, how does the LogP ([1]; exemplary anions) read?
**A.** Its LogP is 0.94.

**Q.** For `CC(C)=CC(=O)O` [3,3-dimethylacrylic acid], which LogP [1] is on record?
**A.** Its LogP is 1.2.

**Q.** With `O=C(O)CCc1ccccc1` [Hydrocinnamic acid] as the molecule, how does the LogP ([1]; exemplary anions) read?
**A.** Its LogP is 1.84.

**Q.** With `CCCCC(CC)COS(=O)(=O)O` (stereo not drawn) [2-Ethylhexyl sulfate] as the molecule, how does the LogP [1] read?
**A.** Its LogP is 3.10.
